Experimental findings from US8617871B2, “Method and culture medium for enhanced detection of Mycobacterium” (bioMerieux, Inc., priority 2009, dated 2013) are described below.

One assay deals with M. avium. In kind it is cell-based, Mycobacterium avium.
For a further assay, the system named is M. tuberculosis. The assay is described as follows: Time to detection (TTD) of growth in BacT/ALERT MP culture bottles. Type of assay: cell-based, Mycobacterium tuberculosis. Particulars: for # Positive: of # Tested.
Another assay deals with M. intracellulare. Type of assay: cell-based, Mycobacterium intracellulare.
For a further assay, the system named is M. scrofulaceum. The assay is described as follows: Time to detection (TTD) of growth in BacT/ALERT MP culture bottles. Type of assay: cell-based, Mycobacterium scrofulaceum. Particulars: for # Positives: of # Tested; for effect on the growth (as determined by TTD of growth): Mycobacterium scrofulaceum, compared to a culture medium that contained no antimicrobial agents. Here is the method: (§1) For the new NS, an autoclaved or new BacT/ALERT® MP bottle was used (as described hereinabove) and for conventional/old RF, conventional/old MP bottle (bioMérieux, Inc.) was used. […] The conventional MAS (using conventional/old RF) and new MAS formulas (using NS) were added to the second set of MP culture bottles. The experiment was performed with mycobacteria species at 0.5×10^3 CFU/ml and CRF cultures at 0.5×10^5 CFU/ml.
(§2) The mycobacteria inoculum was 0.5×10^3 CFU/ml.

In a further assay the test system is M. fortuitum. The description is as above. In kind it is cell-based. Particulars: M. fortuitum 6841; for # Positives: of # Tested.
The test system of the next assay is M. kansasii. The assay is described as above. Type of assay: cell-based, Mycobacterium kansasii. The conditions noted are these: for # Positives: M. kansasii 12478, of # Tested; for effect on the growth (as determined by TTD of growth): Mycobacterium kansasii, compared to a culture medium that contained no antimicrobial agents. As to the method: as §1, §2
Assay [1] relates to contaminating respiratory flora (CRF). Type of assay: cell-based.
[2] abbreviates: M. scrofulaceum 19981, Media + VAN 3.5.
Setting [3] is: M. tuberculosis 27294, Media + AZL 24.

SMILES strings stand for the structures. Where “and” joins values, the source holds several entries; their conditions need not be identical. Equal entries are not always repeated. Where two headings read alike, the source gives them in different places.

`O=C(O)CCC(=O)C(=O)O` [α-keto glutarate, α-ketoglutarate]: the No. of positives with M. avium, in the assay with M. tuberculosis and with M. intracellulare was 3 each time. In addition, the “reduction in time to detection (TTD) of growth” value in the assay on M. avium, with M. tuberculosis and in the assay on M. intracellulare was “two” in each case. In addition, the “Avg. TTD” value in the assay on M. intracellulare is 9.0 days and 8.8 days.

On to `CN[C@H](CC(C)C)C(=O)N[C@H]1C(=O)N[C@@H](CC(N)=O)C(=O)N[C@H]2C(=O)N[C@H]3C(=O)N[C@H](C(=O)N[C@H](C(=O)O)c4cc(O)cc(O)c4-c4cc3ccc4O)[C@H](O)c3ccc(c(Cl)c3)Oc3cc2cc(c3O[C@@H]2O[C@H](CO)[C@@H](O)[C@H](O)[C@H]2O[C@H]2C[C@](C)(N)[C@H](O)[C@H](C)O2)Oc2ccc(cc2Cl)[C@H]1O` [VAN, vancomycin], for which the “# Positives” value stood at 4.0 in the assay with M. scrofulaceum (M. scrofulaceum 19981, Media + VAN 1.75); 4.0 with M. scrofulaceum (setting [2]); 1.0 in the assay with M. scrofulaceum (M. scrofulaceum 19981, Media + VAN 7); 4.0 with M. fortuitum (Media + VAN 1.75); 4.0 in the assay on M. fortuitum (Media + VAN 3.5); 4.0 in the assay with M. fortuitum (Media + VAN 7). The “# Positives” value with M. kansasii (Media + VAN 1.75) is recorded as 4.0; in the assay with M. kansasii (Media + VAN 3.5), 2.0. Further, the “Average TTD” value with M. scrofulaceum (setting [2]) amounted to 14.0 days; in the assay with M. fortuitum (Media + VAN 1.75), 4.7 days; in the assay on M. fortuitum (Media + VAN 3.5) it was 4.1 days; in the assay with M. fortuitum (Media + VAN 7), 4.8 days. Further, the “effect on the growth (as determined by TTD of growth)” value with M. scrofulaceum, in the assay on M. tuberculosis and in the assay on M. kansasii was “negative effect” throughout.

As to `C[C@@H]1O[C@@H]1P(=O)(O)O` [fosfomycin], in assay [1], the “ability to suppress contaminating respiratory flora (CRF)” value was “the best choice for suppression of CRF”.

For the compound `CC1(C)S[C@@H]2[C@H](NC(=O)[C@H](NC(=O)N3CCNC3=O)c3ccccc3)C(=O)N2[C@H]1C(=O)O` [AZL, azlocillin], the “effect on the growth (as determined by TTD of growth)” value in the assay with M. scrofulaceum is given as “negative effect”; with M. tuberculosis (Mycobacterium tuberculosis, compared to a culture medium that contained no antimicrobial agents) it was “negative effect”; in the assay on M. intracellulare, “negative effect”; in the assay on M. kansasii it was “negative effect”. The “# Positive” value with M. tuberculosis (M. tuberculosis 25177, Media + AZL12) is reported as 4.0; with M. tuberculosis (M. tuberculosis 25177, Media + AZL 24), 2.0; in the assay with M. tuberculosis (M. tuberculosis 25177, Media + AZL 48), 2.0; with M. tuberculosis (M. tuberculosis 27294, Media + AZL12), 4.0; in the assay on M. tuberculosis (setting [3]) it was 4.0; in the assay on M. tuberculosis (M. tuberculosis 27294, Media + AZL 48), 4.0. Further, the “Average TTD” value in the assay with M. tuberculosis (setting [3]) was 16.0 days.
